Columns and labels:
Assay in all cases: relative viability (nuclei count vs DMSO), 5 days (fraction); higher = more cells survive
EHT 1864 + Navitoclax = compound: C1COCCN1CC2=CC(=O)C(=CO2)OCCCCCSC3=C4C=CC(=CC4=NC=C3)C(F)(F)F [EHT 1864] + CC1(C)CCC(c2ccc(Cl)cc2)=C(CN2CCN(c3ccc(C(=O)NS(=O)(=O)c4ccc(N[C@H](CCN5CCOCC5)CSc5ccccc5)c(S(=O)(=O)C(F)(F)F)c4)cc3)CC2)C1 [Navitoclax] (partner 0.5 µM)
How it was run: (§1)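 Each reported value is a median over duplicate plates. It expresses relative viability: treated-well nuclei count divided by vehicle-well nuclei count. Lung cancer cell lines in 1536-well plates were dosed by pin tool a day after seeding, alone with one drug or with a fixed anchor-drug dose plus five library-drug doses (not always all listed) in √10 steps, and nuclei were counted after 5 days.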

EHT 1864 + Dasatinib = compound: C1COCCN1CC2=CC(=O)C(=CO2)OCCCCCSC3=C4C=CC(=CC4=NC=C3)C(F)(F)F [EHT 1864] + Cc1nc(Nc2ncc(C(=O)Nc3c(C)cccc3Cl)s2)cc(N2CCN(CCO)CC2)n1 [Dasatinib] (partner 0.075 µM)
How it was run: as §1

EHT 1864 + Bortezomib = compound: C1COCCN1CC2=CC(=O)C(=CO2)OCCCCCSC3=C4C=CC(=CC4=NC=C3)C(F)(F)F [EHT 1864] + CC(C)C[C@H](NC(=O)[C@H](Cc1ccccc1)NC(=O)c1cnccn1)B(O)O [Bortezomib] (partner 0.002 µM)
How it was run: as §1

EHT 1864 + Luminespib = compound: C1COCCN1CC2=CC(=O)C(=CO2)OCCCCCSC3=C4C=CC(=CC4=NC=C3)C(F)(F)F [EHT 1864] + CCNC(=O)c1noc(-c2cc(C(C)C)c(O)cc2O)c1-c1ccc(CN2CCOCC2)cc1 [Luminespib] (partner 0.01 µM)
How it was run: as §1

Cell Line	relative viability (EHT 1864 + Navitoclax; first compound 0.04 µM)	relative viability (EHT 1864 + Navitoclax; first compound 0.1265 µM)	relative viability (EHT 1864 + Navitoclax; first compound 0.4 µM)	relative viability (EHT 1864 + Navitoclax; first compound 1.265 µM)	relative viability (EHT 1864 + Navitoclax; first compound 4 µM)	relative viability (EHT 1864 + Dasatinib; first compound 0.04 µM)	relative viability (EHT 1864 + Dasatinib; first compound 0.1265 µM)	relative viability (EHT 1864 + Dasatinib; first compound 0.4 µM)	relative viability (EHT 1864 + Dasatinib; first compound 1.265 µM)	relative viability (EHT 1864 + Dasatinib; first compound 4 µM)	relative viability (EHT 1864 + Bortezomib; first compound 0.04 µM)	relative viability (EHT 1864 + Bortezomib; first compound 0.1265 µM)	relative viability (EHT 1864 + Bortezomib; first compound 0.4 µM)	relative viability (EHT 1864 + Bortezomib; first compound 1.265 µM)	relative viability (EHT 1864 + Bortezomib; first compound 4 µM)	relative viability (EHT 1864 + Luminespib; first compound 0.04 µM)	relative viability (EHT 1864 + Luminespib; first compound 0.1265 µM)	relative viability (EHT 1864 + Luminespib; first compound 0.4 µM)	relative viability (EHT 1864 + Luminespib; first compound 1.265 µM)	relative viability (EHT 1864 + Luminespib; first compound 4 µM)
HCC-827	1.1	0.844	0.96	1.02	0.944	0.358	0.328	0.268	0.248	0.269	1.1	0.844	0.999	1.11	0.985	0.517	0.427	0.465	0.487	0.588
HOP-62	0.915	–	1.02	0.977	1.22	0.561	–	0.74	0.589	0.84	1.18	–	0.618	1.08	0.986	0.932	–	0.765	0.798	0.982
LC-2-ad	0.49	–	0.49	0.382	0.39	0.65	–	0.617	0.54	0.659	0.924	–	0.993	1.04	0.903	1.12	–	0.912	1	0.951
LCLC-97TM1	0.414	–	0.342	0.339	0.503	0.888	0.748	0.828	0.727	0.8	0.754	0.53	0.75	0.401	0.7	0.701	0.517	0.772	0.718	0.784
LOU-NH91	0.693	0.652	0.789	0.694	0.567	0.543	0.5	0.56	0.628	0.486	0.566	0.514	0.492	0.498	0.498	0.345	0.345	0.342	0.294	0.32
LU99A	0.689	0.566	0.716	0.818	0.933	0.482	0.413	0.613	0.564	0.436	1.06	0.672	1.06	1.25	1.13	0.186	0.242	0.229	0.215	0.233
LXF-289	0.952	0.837	0.885	0.811	0.939	0.237	0.239	0.253	0.171	0.207	1.02	0.92	0.929	0.973	0.872	0.739	0.544	0.689	0.657	0.647
NCI-H23	0.718	–	0.627	0.784	0.816	0.741	0.536	0.522	0.481	0.779	0.879	–	0.84	0.995	0.924	0.194	–	0.242	0.193	0.204
NCI-H322M	1.13	1.26	1.13	1.29	1.23	0.256	0.24	0.283	0.23	0.234	1.22	1.2	1.23	1.27	1.25	0.877	0.859	0.955	0.529	1.06
NCI-H441	0.542	0.536	0.513	0.611	0.233	0.562	0.532	0.557	0.649	0.603	0.381	0.372	0.505	0.447	0.285	0.478	0.346	0.322	0.393	0.385
NCI-H460	1.11	1.16	1.03	1.16	1.02	0.516	0.405	0.565	0.532	0.54	1.01	1.1	0.993	0.994	0.905	0.0334	0.0284	0.0337	0.0326	0.0353
NCI-H520	0.999	1.07	1.06	1.08	1.06	0.218	0.171	0.205	0.211	0.192	0.685	0.339	0.629	0.773	0.323	0.221	0.227	0.219	0.193	0.234
NCI-H596	1.1	0.892	1.08	0.812	0.888	0.701	0.592	0.533	0.554	0.664	0.836	0.637	0.976	1.01	1.05	0.953	0.986	1.03	0.972	1.05
NCI-H647	0.981	0.837	1.17	1.12	1.05	0.193	0.121	0.168	0.179	0.204	0.808	0.753	0.954	0.934	1.04	0.196	0.213	0.126	0.102	0.111
NCI-H727	0.554	0.507	0.348	–	0.324	0.397	0.334	0.344	0.371	0.343	0.92	0.973	0.848	–	1.12	0.62	0.417	0.376	0.538	0.385
NCI-H838	1.08	1.04	1.14	1.08	1.14	0.207	0.252	0.304	0.277	0.269	0.873	0.47	0.778	0.906	0.614	0.274	0.237	0.383	0.266	0.293
NCI-H1355	1.04	0.843	0.907	0.904	0.838	0.676	0.535	0.73	0.561	0.725	1.32	0.908	1.12	1.32	1.24	0.711	0.652	0.691	0.654	0.699
NCI-H1437	1.06	1.03	0.967	0.819	0.671	0.453	0.387	0.342	0.235	0.248	0.563	0.476	0.475	0.486	0.473	1.1	1.04	1.03	0.912	0.681
NCI-H1650	1.12	0.783	1.14	1.4	1.18	–	–	0.36	0.271	0.377	0.202	0.205	0.228	0.215	0.202	–	–	0.203	0.201	0.198
NCI-H1651	1.03	0.947	1.1	1	0.91	0.407	0.425	0.332	0.37	0.471	0.988	0.89	0.974	0.868	0.929	0.694	0.907	0.803	0.704	0.57
NCI-H1666	0.881	0.834	0.957	0.965	0.92	0.86	0.805	0.746	0.745	0.795	0.763	0.728	0.772	0.78	0.98	1	1.03	0.877	0.993	0.968
NCI-H1734	0.916	0.828	0.849	0.867	0.747	0.497	–	0.523	0.528	0.502	1.09	0.788	0.914	0.902	0.901	0.242	–	0.222	0.182	0.179
NCI-H1755	1.02	0.927	0.94	0.979	0.869	0.424	0.333	0.425	0.369	0.399	1.02	0.824	0.895	0.899	0.941	0.618	0.3	0.601	0.42	0.401
NCI-H1792	0.68	0.54	0.648	0.616	0.718	0.755	0.778	0.714	0.73	0.894	0.859	0.877	0.926	0.866	0.919	0.393	–	0.376	0.361	0.533
NCI-H1915	0.797	–	0.764	0.768	0.792	0.309	–	0.296	0.338	0.282	1	–	1.01	0.934	0.964	0.8	–	0.733	0.577	0.791
NCI-H1975	1.14	1.19	1.17	0.928	0.875	0.361	0.292	0.426	–	0.331	0.343	0.395	0.376	0.32	0.369	0.143	0.284	0.201	0.155	0.199
NCI-H1993	0.84	0.697	0.866	1.08	0.849	0.841	–	0.498	0.613	0.639	0.973	0.733	1.06	1.01	1.06	0.737	–	0.813	0.865	0.795
NCI-H2009	1.16	1.15	1.14	1.11	0.879	0.259	0.258	0.323	0.241	0.251	0.881	0.794	1.04	0.918	0.936	1	0.926	0.979	0.913	0.789

From the supplement of paper PMC10307832
